In patent publication US11291625B2, “Antimicrobial compositions and methods for reducing microbial contamination” (PolyVation B.V., priority 2015, dated 2022):

Assay: BKC / BEZ release assay from polymer film with aqueous BPB solution
Format: physicochemical
Details: for release from 0.45% biocide coating without copolymer upon addition of the BPB solution: reference, no polymer
Method: The different 5 wt % polymer formulations were supplemented with 0.45 wt % BKC and 20 μl coated to the first well of each row of a 96-well plate. After evaporation of the solvent (2-propanol), 100 μl of an aqueous BPB ([…]) solution (25×10^−3 mmol/L) was added to the coated wells and the plate was incubated for 30 seconds at room temperature. Next, the aqueous phase was removed from the well and the formation of blue BPB-BKC complexes was assessed by visual inspection. This process was repeated until blue BPB-BKC complexes were no longer observed, and the number of repeated BPB incubation steps was recorded.
The slow release properties of the PVPM20, PVPMDM, PVPMEM and PVPDDM co-polymer formulations were verified in a BKC and a BEZ release test that were performed in 96-well plates. The different polymer formulations (i.e. PVPM20-85:15, PVPM20-80:20, PVPM20-65:35, PVPMDM-60:40, PVPMDM-75:25, PVPMEM-80:20 and PVPDDM-80:20 in 2-propanol at 2.5 wt % were supplemented with 0.45 wt % BKC or BEZ. 20 μl was coated to the first well of each row of a 96-well plate. After evaporation of the 2-propanol solvent, 100 μl of an aqueous BPB solution (25×10^−3 mmol/L) was added to the coated wells and the plate was incubated for 30 seconds at room temperature. BPB forms a blue complex with free BKC and free BEZ when it is released from the polymer film into an aqueous solution. Of note, the BPB-BKC or BPB-BEZ complex is blue, whereas the BPB solution itself is purple (20). Next, the aqueous phase was removed from the well and the formation of blue BPB-BKC or BPB-BEZ complexes was assessed by visual inspection. This process was repeated until blue BPB-BKC complexes were no longer observed, and the number of repeated BPB incubation steps was recorded.
The number of cycles needed to release readily detectable amounts of BKC or BEZ was used as a measure to assess the BKC-retaining or BEZ-retaining properties of the different polymer formulations.

Row | Molecule | Test1 (BKC): Number of incubations after which BKC was no longer detectable (0.45 wt % BKC, 30 seconds incubations with aqueous BPB solution, room temperature) [x] | release from 0.45% biocide coating without copolymer upon addition of the BPB solution | Test2 (BEZ): Number of incubations after which BEZ was no longer detectable (0.45 wt % BEZ, 30 seconds incubations with aqueous BPB solution, room temperature) [x]
1 | benzalkonium chloride [BKC only] | 1 | dissolved instantaneously | 
2 | CC(C)(C)CC(C)(C)c1ccc(OCCOCC[N+](C)(C)Cc2ccccc2)cc1 [BEZ only, benzethonium chloride] |  | dissolved instantaneously | 1
